Experimental data published in patent publication US20130344065A1, “Combination Treatment with VEGF-C Antagonists” (Vegenics Pty Ltd, priority 2010, published 2013).
Values joined by “and” are separate entries in the source; they are usually repeats but may differ in a detail not shown here. Equal entries are not always repeated.

Legend:
[1] = system: U87MG human glioblastoma tumors; test: U87MG glioblastoma xenograft, combination (Example 7); type: in vivo, nude mice; conditions: VGX-100 40 mg/kg, bevacizumab 10 mg/kg, administered alone
Experimental: This experiment was conducted broadly in accordance with Example 3, except that U87MG glioblastoma cells were substituted for PC-3 prostate cancer cells. Cells from a human glioblastoma tumor line (U87MG) were implanted subcutaneously into mice and grown until the tumors reached an average size of approximately 150 mg. […] There were 10 animals per treatment group.

[2] = system: PC-3 human prostate carcinoma xenografts; test: PC-3 xenograft combination therapy (Example 3, first study);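 note: subcutaneous PC-3 tumors in male athymic NCr nude mice aged 6-7 weeks, combination agents dosed within 30 min of each other, animals euthanized once tumors exceeded 2 g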
Experimental: Docetaxel was administered intravenously at 10 mg/kg weekly for three injections.
HIgG1 Isotype control-humanised antibody (6.4-12.36 mg/ml) and VGX-100 (5.53 and 5.75 mg/ml) were provided as frozen colorless stock solutions in Dulbecco's phosphate buffered saline (DPBS) and stored from light at −80° C. The stock solutions were thawed and stored at 4° C. when treatment began. The dosing solutions (40 mg/kg in 0.2 ml/20 g body weight) were prepared by diluting the stock solution with DPBS. The resulting formulations were clear with pH values ranging from 7.02-7.21. The dosing vials were kept on wet ice during dosing, gently pipetted and not aspirated through a needle except during administration. Dosing solutions were prepared weekly in DPBS and stored protected from light at 4° C. while not in use.
Docetaxel (lot no. D9A095) was manufactured by Sanofi-Aventis and obtained from McKesson as a pale yellow solution in 50% EtOH/50% Tween80. It was stored protected from light at 4° C. Docetaxel was diluted as directed on the package insert with the provided diluent (sterile water) to produce a clear and colorless 10 mg/ml stock solution. On each treatment day, a fresh 10 mg/ml stock was prepared and further diluted with water to achieve the appropriate concentration. The resulting solution was clear and colorless with a pH of 7.16.
All test articles were administered within two hours of preparation. For groups receiving combination therapy, the drugs were administered in the order presented in Table 1 and within 30 minutes of one another.
Male NCR(NCRNU-M) athymic mice were obtained from Taconic. They were 6-7 weeks old on Day 1 of the experiment. The mice were fed irradiated Rodent Diet 5053 (LabDiet™) and water ad libitum. The mice were housed in static cages with Bed-O'Cobs™ bedding inside Biobubble® Clean Rooms that provide H.E.P.A filtered air into the bubble environment at 100 complete air changes per hour. All treatments, body weight determinations, and tumor measurements were carried out in the bubble environment. The environment was controlled to a temperature range of 21.1±1.1° C. (70±2° F.) and a humidity range of 30-70%.
Test mice were implanted subcutaneously on Day 0. […] Mice with tumors in excess of 2 g or with ulcerated tumors were euthanized, as were those found in obvious distress or in a moribund condition.
PC-3 cells were obtained from ATCC and expanded using Ham's F-12 media supplemented with 10% fetal bovine serum and 1% penicillin-streptomycin-glutamine in 5% CO2 atmosphere at 37° C. When expansion was complete, the cells were collected using Trypsin (Cell Gro®), the trypsin neutralized, and the cells pooled for implantation. The PC-3 (Passage 10) cell suspension was counted using trypan blue exclusion with a hemacytometer. The cell suspension was reduced to a pellet using an Eppendorf 5810R centrifuge at 1500 rpm (300×g) for 5 minutes at 4° C. A 2.5×10^7 cells/ml suspension was prepared in 50% serum free media and 50% Matrigel®. Pre-injection viability was 97.7%. Test animals were implanted subcutaneously on Day 0 with 5×10^6 cells/animal (0.2 ml) using a 27-gauge needle and syringe. The cell suspension was maintained on wet ice to minimize the loss of viability and inverted frequently to maintain a uniform cell suspension during the inoculation procedure.
Treatments began on Day 8, when the mean estimated tumor mass for all groups in the experiment was 129 mg (range of group means, 123-134 mg). All animals weighed≧19.2 g at the initiation of therapy. Mean group body weights at first treatment were matched (range of group means, 21.5-22.8 g). All animals were dosed according to individual body weight on the day of treatment (0.2 ml/20 g).

Q: Which “Effect on tumor growth” value [1] does the source give for “VGX-100: VEGF-C antibody; heavy chain SEQ ID NO: 3, light chain SEQ ID NO: 4” here?
A: no significant effect

Q: What about the “Time to evaluation size” value ([2]; 750 mg, individual animals) of the same substance?
A: 39.5 days and 22.8 days and 19.9 days and 22.3 days and 33.5 days and 18.5 days and 31.1 days and 19.4 days and 22.0 days and 22.2 days

Q: And the “Tumor Growth Delay” value ([2]; T-C, evaluation size 750 mg, same doses)?
A: 2.2 days

Q: And the “% T/C Day 22” value ([2]; VGX-100 40 mg/kg IP, bevacizumab 10 mg/kg IP, docetaxel 10 mg/kg IV, median tumor mass vs control)?
A: 87%

Q: And the “% T/C: tumor burden in treatment group compared to control” value ([2]; at day 160)?
A: 97.9%

Q: What about the “% TFS (tumor free survivors)” value ([2]; at termination, Day 160, same doses) of the same substance?
A: 0%

Q: And the “Td” value ([2]; group mean)?
A: 8.3 days

Q: What about the “Time to evaluation size” value ([2]; group mean) of the same substance?
A: 25.1 days

Q: What about the “Time to fold growth EP” value ([2]; group mean) of the same substance?
A: 20.4 days

Q: What about the “Td” value ([2]; group median) of the same substance?
A: 6.2 days

Q: What about the “Time to evaluation size” value ([2]; group median) of the same substance?
A: 22.2 days

Q: What about the “Time to fold growth EP” value ([2]; group median) of the same substance?
A: 20.8 days

Q: And the “Time to fold growth EP” value ([2]; individual animals)?
A: 27.4 days and 20.9 days and 16.4 days and 21.5 days and 28.2 days and 13.9 days and 21.3 days and 15.8 days and 17.9 days and 20.7 days

Q: What about the Complete regression ([2]; individual animals, yes/no) of the same substance?
A: no

Q: What about the Partial regression ([2]; individual animals, yes/no) of the same substance?
A: no

Q: What about the Tumor free survivor ([2]; individual animals, yes/no) of the same substance?
A: no

Q: And the “Total CR” value ([2]; number of animals of 10)?
A: 0

Q: And the “Total PR” value ([2]; number of animals of 10)?
A: 0

Q: What about the “Total TFS” value ([2]; number of animals of 10) of the same substance?
A: 0

Q: And the “% CR (complete regression)” value ([2]; same doses)?
A: 0%

Q: What about the “% PR (partial regression)” value ([2]; same doses) of the same substance?
A: 0%

Q: And the “Anticancer activity of regimen” value ([2]; same doses)?
A: ineffective

Q: What about the “Apparent Net Tumor Cell Kill (logs)” value ([2]; same doses) of the same substance?
A: −2.85 logs

Q: What about the “Tumor regressions” value ([2]; same doses) of the same substance?
A: Nor tumor regressions were observed

Q: And the “Td” value ([2]; tumor doubling time, individual animals)?
A: 16.6 days and 5.1 days and 6.0 days and 6.1 days and 14.1 days and 5.7 days and 12.3 days and 6.3 days and 7.1 days and 3.8 days
